Source: patent US20260001898A1, “Heteroaryl compounds as inhibitors of TYK2/JAK1, composition and application thereof” (Accro Bioscience (HK) Limited, priority 2022, published 2026)

Legend:
[1] = system: IFNα induced CXCL-10 in PBMC; experiment: ELISA of IFNα induced CXCL-10 in PBMC; format: cell-based; details: for IC50: IFNα induced CXCL-10 in PBMC
Protocol: • 1. Soak plate: Add 300 μL 1× washing solution and let stand for 30 seconds. After discarding the washing solution, anhydrous the microporous plate on absorbent paper. • 2. Add standard: Add 100 μL of 2-fold standard to standard well. Add 100 μL standard dilution (serum/plasma sample) or culture medium (cell culture supernatant sample) to blank well. • 3. Add sample: Serum/plasma: Add 50 μL 1× assay buffer and 50 μL sample to sample well. Cell culture supernatant: Add 100 μL cell culture supernatant to sample well. • 4. Add detection antibody: Add 50 μL diluted detection antibody (1:100 diluted) to each well. Make sure steps 4, 5 and 6 are added continuously without interruption. The sampling process was completed within 15 minutes. • 5. Incubation: Use sealing plate film to seal the plate. Shake at 300 rpm and incubate for 2 hours at room temperature. • 6. Washing: Discard the liquid, add 300 μL of washing solution and wash the plate 6 times. Pat anhydrous on blotting paper after each wash. To obtain the desired experimental performance, the residual liquid must be completely removed. • 7. Enzyme addition: Add 100 μL diluted horseradish peroxidase labeled streptavidin to each well (1:100 diluted). • 8. Incubation: Seal the plate with a new sealing film. Shake at 300 rpm and incubate at room temperature for 45 minutes. • 9. Washing: Repeat […]. • 10. Add substrate for color development: Add 100 μL of color development substrate TMB to each well, keep away from light, and incubate at room temperature for 5-30 minutes. • 11. Add Stop Solution: Add 100 μL stop solution to each well. The color changed from blue to yellow. If the color appears green or the color changes unevenly, gently tap the frame of the plate to mix well. • 12. Assay readout: Within 30 minutes, perform dual wavelength detection using a microplate reader to measure the OD at the absorption maximum at 450 nm and reference wavelengths at 570 nm or 630 nm. The calibrated OD value is the measured value at 450 nm minus the measured value at 570 nm or 630 nm.

JAK2/JAK2 pathway = experiment: Western blot p-STAT3/STAT3 in TPO-stimulated HEL cells; format: cell-based; details: TPO 100 ng/mL
Protocol: HEL cells were digested by trypsin, re-suspended in 1640 medium and counted. The compounds to be measured were added to 6 well plates (1 million/per well) for 2 hours, and then thrombopoietin (TPO)(final concentration: 100 ng/mL) was added to stimulate cells for 30 minutes. The cells were collected and lysed with protein lysate. The protein was quantitatively tested by bicinchoninic acid (BCA) kit. Finally, p-STAT3/STAT3 and internal reference protein β-actin were detected by Western blot.

JAK1/JAK2 pathway = experiment: Western blot p-STAT1/STAT1 in IFN-γ-stimulated HT-29 cells; format: cell-based; details: IFN-γ 100 ng/mL
Protocol: HT-29 cells were digested by trypsin and suspended in Dulbecco's Modified Eagle Medium (DMEM) and counted. The tested compounds were added into the 6 well plates (400 000/per well). After 2 hours, IFN-γ (100 ng/mL) was added to stimulate cells for 30 minutes. The cells were collected and lysed with protein lysate. The protein was quantitatively tested by BCA kit. Finally, p-STAT1/STAT1 and internal reference protein β-actin were detected by Western blot.

[2] = system: IFNα induced TYK2/JAK1 mediated STAT activation; experiment: Luciferase assay in L929 ISRE cells stimulated with IFN-α; format: cell-based; details: IFN-α 100 ng/mL
Protocol: • 1. L929 ISRE cells (5000 cells/well) were seeded on 96-well plates and incubated overnight at room temperature-; • 2. The cells were pretreated by adding different concentrations (10 nM, 50 nM, 100 nM, 200 nM or 1000 nM) of the test compounds for 2 hours; • 3. Added IFN-α (100 ng/mL) to stimulate cells for 6 hours; • 4. Removed the upper medium, add PBS (100 μL) and washed, then removed PBS; • 5. Added PLB lysis solution (50 μL) to each well, shook the well for 15 minutes; • 6. Transferred PLB lysis solution (30 μL) to a new 96-well whiteboard, added LAR II reagent (LAR II), then quickly read the 450 nm OD value with a plate washer; • 7. Added Stop & Glo reagent (30 μL), then read the 450 nm OD value using the plate washer. • 8. The final result was the OD value in step 6/OD value in step 7.

TYK2 JH2 = TYK2 JH2 (Homo sapiens (Human), UniProt P29597); experiment: Competitive binding assay
Protocol: (§1) For most assays, kinase-tagged T7 phage strains were prepared in an E. coli host derived from the BL21 strain. E. coli were grown to log-phase and infected with T7 phage and incubated with shaking at 32° C. until lysis. The lysates were centrifuged and filtered to remove cell debris. The remaining kinases were produced in HEK-293 cells and subsequently tagged with DNA for qPCR detection. Streptavidin coated magnetic beads were treated with biotinylated small molecule ligands for 30 minutes at room temperature to generate affinity resins for kinase assays. The liganded beads were blocked with excess biotin and washed with blocking buffer (SeaBlock (Pierce), 1% BSA, 0.05% Tween 20, 1 mM DTT) to remove unbound ligand and to reduce non-specific binding. […] Test compounds were prepared as 111X stocks in 100% DMSO. Dissociation constants (Kds) were determined using an 11-point 3-fold compound dilution series with three DMSO control points. […] The compounds were then diluted directly into the assays such that the final concentration of DMSO was 0.9%. All reactions performed in polypropylene 384-well plate. Each was a final volume of 0.02 ml. […] The beads were then re-suspended in elution buffer (1×PBS, 0.05% Tween 20, 0.5 μM nonbiotinylated affinity ligand) and incubated at room temperature with shaking for 30 minutes. The kinase concentration in the eluates was measured by qPCR.
(§2) An 11-point 3-fold serial dilution of each test compound was prepared in 100% DMSO at 100× final test concentration and subsequently diluted to 1× in the assay (final DMSO concentration=1%). Most Kds were determined using a compound top concentration=30,000 nM. If the initial Kd determined was <0.5 nM (the lowest concentration tested), the measurement was repeated with a serial dilution starting at a lower top concentration.
(§3) Binding constants (Kds) were calculated with a standard dose-response curve using the Hill equation: […]
(§4) The Hill Slope was set to −1.
(§5) Curves were fitted using a non-linear least square fit with the Levenberg-Marquardt algorithm.

JAK1 JH2 = JAK1 JH2 (Homo sapiens (Human), UniProt P23458); experiment: Competitive binding assay
Protocol: as §1, §2, §3, §4, §5

JAK1 JH1 = JAK1 JH1 (Homo sapiens (Human), UniProt P23458); experiment: Competitive binding assay
Protocol: as §1, §2, §3, §4, §5

JAK3 JH1 = JAK3 JH1 (Homo sapiens (Human), UniProt P52333); experiment: Competitive binding assay
Protocol: as §1, §2, §3, §4, §5

JAK2 JH1 = JAK2 JH1 (Homo sapiens (Human), UniProt O60674); experiment: Competitive binding assay
Protocol: as §1, §2, §3, §4, §5

TYK2 JH1 = TYK2 JH1 (Homo sapiens (Human), UniProt P29597); experiment: Competitive binding assay
Protocol: as §1, §2, §3, §4, §5

[3] = system: JAK1 JH2 and TYK2 JH2 versus JAK1 JH1, JAK2 JH1, JAK3 JH1 and TYK2 JH1; experiment: Competitive binding assay, selectivity JH2 versus JH1 domains
Protocol: For most assays, kinase-tagged T7 phage strains were prepared in an E. coli host derived from the BL21 strain. E. coli were grown to log-phase and infected with T7 phage and incubated with shaking at 32° C. until lysis. The lysates were centrifuged and filtered to remove cell debris. The remaining kinases were produced in HEK-293 cells and subsequently tagged with DNA for qPCR detection. Streptavidin coated magnetic beads were treated with biotinylated small molecule ligands for 30 minutes at room temperature to generate affinity resins for kinase assays. The liganded beads were blocked with excess biotin and washed with blocking buffer (SeaBlock (Pierce), 1% BSA, 0.05% Tween 20, 1 mM DTT) to remove unbound ligand and to reduce non-specific binding. […] Test compounds were prepared as 111X stocks in 100% DMSO. Dissociation constants (Kds) were determined using an 11-point 3-fold compound dilution series with three DMSO control points. […] The compounds were then diluted directly into the assays such that the final concentration of DMSO was 0.9%. […] The kinase concentration in the eluates was measured by qPCR.
An 11-point 3-fold serial dilution of each test compound was prepared in 100% DMSO at 100× final test concentration and subsequently diluted to 1× in the assay (final DMSO concentration=1%). Most Kds were determined using a compound top concentration=30,000 nM. […]

JAK2 and TYK2 = details: some studies, background; cited from earlier work

Sequence of JAK1 JH2 (P23458 583-855): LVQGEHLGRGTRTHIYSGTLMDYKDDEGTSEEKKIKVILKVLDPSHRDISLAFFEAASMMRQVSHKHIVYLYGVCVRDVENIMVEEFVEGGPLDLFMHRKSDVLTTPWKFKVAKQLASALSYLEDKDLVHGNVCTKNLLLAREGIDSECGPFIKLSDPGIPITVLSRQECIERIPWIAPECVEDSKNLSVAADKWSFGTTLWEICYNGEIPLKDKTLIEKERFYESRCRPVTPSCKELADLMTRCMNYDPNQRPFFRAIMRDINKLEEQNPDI
Sequence of JAK2 JH1 (O60674 849-1124): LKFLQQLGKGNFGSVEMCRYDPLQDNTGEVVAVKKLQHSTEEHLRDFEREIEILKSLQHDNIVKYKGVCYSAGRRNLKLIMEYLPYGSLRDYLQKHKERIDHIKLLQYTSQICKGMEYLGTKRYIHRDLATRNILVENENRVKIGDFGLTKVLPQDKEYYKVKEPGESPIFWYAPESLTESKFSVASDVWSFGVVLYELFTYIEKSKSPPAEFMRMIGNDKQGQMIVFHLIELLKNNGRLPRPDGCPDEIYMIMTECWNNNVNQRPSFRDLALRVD
Sequence of TYK2 JH1 (P29597 897-1176): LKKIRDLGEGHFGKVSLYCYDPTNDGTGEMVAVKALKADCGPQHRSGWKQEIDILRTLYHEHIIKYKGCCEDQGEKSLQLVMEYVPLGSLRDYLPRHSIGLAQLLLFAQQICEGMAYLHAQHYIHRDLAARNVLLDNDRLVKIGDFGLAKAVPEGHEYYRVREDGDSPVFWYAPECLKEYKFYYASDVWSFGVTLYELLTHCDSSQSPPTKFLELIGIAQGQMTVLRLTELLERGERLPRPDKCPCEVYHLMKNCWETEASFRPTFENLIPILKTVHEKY
Sequence of TYK2 JH2 (P29597 589-875): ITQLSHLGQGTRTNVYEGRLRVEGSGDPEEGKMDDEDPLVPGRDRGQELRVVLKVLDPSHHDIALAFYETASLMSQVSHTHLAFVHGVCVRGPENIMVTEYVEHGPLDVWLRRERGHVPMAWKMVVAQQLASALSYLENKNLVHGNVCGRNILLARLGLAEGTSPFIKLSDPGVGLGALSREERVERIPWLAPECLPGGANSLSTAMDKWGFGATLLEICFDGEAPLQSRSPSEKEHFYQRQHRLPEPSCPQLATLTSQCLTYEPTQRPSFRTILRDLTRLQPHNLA
Sequence of JAK1 JH1 (P23458 875-1153): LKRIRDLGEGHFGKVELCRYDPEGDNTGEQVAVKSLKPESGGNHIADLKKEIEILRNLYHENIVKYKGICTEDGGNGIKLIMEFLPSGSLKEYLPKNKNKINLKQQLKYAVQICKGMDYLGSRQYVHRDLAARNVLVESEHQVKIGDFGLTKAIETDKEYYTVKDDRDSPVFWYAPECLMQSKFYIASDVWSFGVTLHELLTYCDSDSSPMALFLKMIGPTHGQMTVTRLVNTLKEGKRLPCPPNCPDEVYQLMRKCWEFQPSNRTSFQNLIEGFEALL
Sequence of JAK3 JH1 (P52333 822-1111): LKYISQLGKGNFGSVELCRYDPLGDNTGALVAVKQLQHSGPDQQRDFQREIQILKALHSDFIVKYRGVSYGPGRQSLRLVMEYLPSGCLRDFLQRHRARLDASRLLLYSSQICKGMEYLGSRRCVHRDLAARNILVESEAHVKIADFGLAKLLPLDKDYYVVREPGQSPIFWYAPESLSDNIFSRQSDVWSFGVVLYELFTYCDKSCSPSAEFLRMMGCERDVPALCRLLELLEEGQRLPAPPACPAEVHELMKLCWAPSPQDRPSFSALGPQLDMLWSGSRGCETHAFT

BMS986165 [reference compound]
IC50 [1]: 16.6 nM
effect on TPO-induced downstream STAT3 phosphorylation (JAK2/JAK2 pathway) (JAK2/JAK2 pathway): had no effect on TPO-induced downstream STAT3 phosphorylation
effect on downstream STAT1 phosphorylation induced by IFN-γ (JAK1/JAK2 pathway) (JAK1/JAK2 pathway): had no effect on downstream STAT1 phosphorylation induced by IFN-γ
Inhibitory activity % (50 nM) ([2]; 50 nM compound): 62%
Inhibitory activity % (200 nM) ([2]; 200 nM compound): 94%
Inhibitory activity % (1000 nM) ([2]; 1000 nM compound): 99%

COc1c(Nc2cc(NC(=O)C3CC3)nnc2C(N)=O)cccc1-c1cc(P(=O)(C2CC2)C2CC2)n(C)n1 [Compound A1, 6-(cyclopropanecarboxamido)-4-((3-(5-(dicyclopropylphosphoryl)-1-methyl-1H-pyrazol-3-yl)-2-methoxyphenyl)amino)pyridazine-3-carboxamide]
Kd (TYK2 JH2): 0.0044 ± 0.003 nM
affinity to TYK2 JH2 (TYK2 JH2): strong affinity
Kd (JAK1 JH2): 0.02 ± 0.002 nM
affinity to JAK1 JH2 (JAK1 JH2): strong affinity
Kd (JAK1 JH1): 6900 ± 900 nM
affinity to JAK1 JH1 (JAK1 JH1): weak affinity
Kd (JAK3 JH1): 210 ± 15 nM
affinity to JAK3 JH1 (JAK3 JH1): weak affinity
Kd (JAK2 JH1): 790 ± 40 nM
affinity to JAK2 JH1 (JAK2 JH1): weak affinity
Kd (TYK2 JH1): 550 ± 50 nM
affinity to TYK2 JH1 (TYK2 JH1): weak affinity
selectivity to bind JAK1 JH2 and TYK2 JH2 than JAK1 JH1, JAK2 JH1, JAK3 JH1 and TYK2 JH1 [3]: more than 10,000 times
inhibition of IFNα induced CXCL-10 in PBMC [1]: effectively inhibited IFNα induced CXCL-10 in PBMC
IC50 [1]: 6.3 nM
effect on downstream STAT1 phosphorylation induced by IFN-γ (JAK1/JAK2 pathway) (JAK1/JAK2 pathway): inhibited JAK1/JAK2 pathway in a concentration-dependent manner
inhibition at 0.05 µM ([2]; Mus musculus, 50 nM compound, read-out: Inhibitory activity % (50 nM)): 34%
inhibition at 0.2 µM ([2]; Mus musculus, 200 nM compound, read-out: Inhibitory activity % (200 nM)): 87%
inhibition at 1 µM ([2]; Mus musculus, 1000 nM compound, read-out: Inhibitory activity % (1000 nM)): 98%

Cn1cc(Nc2nccc(N3C[C@H]4CC[C@@H](C3)N4C(=O)[C@@H]3CC3(F)F)n2)cn1 [PF-06700841]
ratio of JAK2 IC50/TYK2 IC50 (JAK2 and TYK2): about 3.3
